From patent US6358885B1, “Substituted phenylheterocyclic herbicides” (Mississippi State University, priority 1992, dated 2002)

Assays:
[1] = tested on: Japonica rice; experiment: Test D paddy water application plant response rating 0 to 100; format: in vivo, Oryza sativa; conditions: 0 to 100 scale, approx. 21 days
Text: (§1) Plastic pots were partially filled with silt loam soil. The soil was then saturated with water. […] After planting, water levels were raised to 3 cm above the soil surface and maintained at this level throughout the test. Chemical treatments were formulated in a non-phytotoxic solvent and applied directly to the paddy water. Treated plants and controls were maintained in a greenhouse for approximately 21 days, after which all species were compared to controls and visually evaluated. […] A dash (-) response means no test result.

[2] = tested on: barnyardgrass; experiment: as above; format: in vivo, Echinochloa crus-galli; conditions: 0 to 100 scale, approx. 21 days
Text: as §1

[3] = tested on: duck salad; experiment: as above; format: in vivo, Heteranthera limosa; conditions: 0 to 100 scale, approx. 21 days
Text: as §1

[4] = tested on: umbrella sedge; experiment: as above; format: in vivo, Cyperus difformis; conditions: 0 to 100 scale, approx. 21 days
Text: as §1

[5] = tested on: arrowhead; experiment: as above; format: in vivo, Sagittaria spp.; conditions: 0 to 100 scale, approx. 21 days
Text: as §1

[6] = tested on: waterchestnut; experiment: as above; format: in vivo, Eleocharis spp.; conditions: 0 to 100 scale, approx. 21 days
Text: as §1

[7] = tested on: Japonica rice; experiment: Test E paddy water application plant response rating 0 to 100; format: in vivo, oryza sativa; conditions: Flood, 0 to 100 scale, approx. 21 days
In short: (§2)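 Greenhouse paddy test: flooded pots of silt loam (water 2 cm over soil) received the solvent-formulated chemical directly in the water.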

[8] = tested on: barnyardgrass; experiment: as above; format: in vivo, Echinochloa crus-galli; conditions: Flood, 0 to 100 scale, approx. 21 days
In short: as §2

[9] = tested on: blackgrass; experiment: Test F preemergence/postemergence greenhouse plant response rating 0 to 100; format: in vivo, Alopecurus myosuroides; conditions: POSTEMERGENCE, 0 to 100 scale; for Blackgrass (1) plant response rating: stage (1) two to three leaves; for Blackgrass (2) plant response rating: stage (2) approximately four leaves or initial tillering
Text: (§3) Compounds evaluated in this test were formulated in a non-phytoxic solvent and applied to the soil surface before plant seedlings emerged (preemergence application) and to plants that were in the one-to-four leaf stage (postemergence application). A sandy loam soil was used for the preemergence test while a mixture of sandy loam soil and greenhouse potting mix in a 60:40 ratio was used for the postemergence test. Test compounds were applied within approximately one day after planting seeds for the preemergence test. Plantings of these crops and weed species were adjusted to produce plants of appropriate size for the postemergence test. All plant species were grown using normal greenhouse practices. Crop and weed species include winter barley (Hordeum vulgare cv. ‘Igri’), blackgrass (Alopecurus myosuroides), chickweed (Stellaria media), downy brome (Bromus tectorum), field violet (Viola arvensis), galium (Galium aparine), green foxtail (Setaria viridis), kochia (Kochia scoparia), lambsquarters (Chenopodium album), speedwell (Veronica persica), rape (Brassica napus), ryegrass (Lolium multiflorum), sugar beet (Beta vulgaris cv. ‘USl’), sunflower (Helianthus annuus cv. ‘Russian Giant’), spring wheat (Triticum aestivum cv. ‘ERA’), winter wheat (Triticum aestivum cv. ‘Talent’), wild buckwheat (Polygonum convolvulus), wild mustard (Sinapis arvensis), wild oat (Avena fatua), and wild radish (Raphanus raphanistrum). Blackgrass, galium and wild oat were treated at two growth stages. […] Treated plants and untreated controls were maintained in a greenhouse for approximately 21 to 28 days, after which all treated plants were compared to untreated controls and visually evaluated. […] A dash response (-) means no test result.

[10] = tested on: field violet; experiment: as above; format: in vivo, Viola arvensis; conditions: POSTEMERGENCE, 0 to 100 scale
Text: as §3

[11] = tested on: rape; experiment: as above; format: in vivo, Brassica napus; conditions: POSTEMERGENCE, 0 to 100 scale
Text: as §3

[12] = tested on: sunflower; experiment: as above; format: in vivo, Helianthus annuus cv. ‘Russian Giant’; conditions: POSTEMERGENCE, 0 to 100 scale
Text: as §3

[13] = tested on: wild buckwheat; experiment: as above; format: in vivo, Polygonum convolvulus; conditions: POSTEMERGENCE, 0 to 100 scale
Text: as §3

Compound: Fc1cc(Cl)c(OCCCl)cc1-c1nn2c(c1Cl)CCCC2 [Compound 49]
- Japonica rice plant response rating ([1]; Rate 4 g/ha): 10
- Japonica rice plant response rating ([1]; Rate 8 g/ha): 10
- Japonica rice plant response rating ([1]; Rate 16 g/ha): 10
- Japonica rice plant response rating ([1]; Rate 32 g/ha): 15
- Japonica rice plant response rating ([1]; Rate 64 g/ha): 20
- Barnyardgrass 2 plant response rating ([2]; Rate 4 g/ha): 0
- Barnyardgrass 2 plant response rating ([2]; Rate 8 g/ha): 20
- Barnyardgrass 2 plant response rating ([2]; Rate 16 g/ha): 30
- Barnyardgrass 2 plant response rating ([2]; Rate 32 g/ha): 70
- Barnyardgrass 2 plant response rating ([2]; Rate 64 g/ha): 100
- Duck salad plant response rating ([3]; Rate 4 g/ha): 0
- Duck salad plant response rating ([3]; Rate 8 g/ha): 0
- Duck salad plant response rating ([3]; Rate 16 g/ha): 0
- Duck salad plant response rating ([3]; Rate 32 g/ha): 0
- Duck salad plant response rating ([3]; Rate 64 g/ha): 10
- Umbrella sedge plant response rating ([4]; Rate 4 g/ha): 0
- Umbrella sedge plant response rating ([4]; Rate 8 g/ha): 0
- Umbrella sedge plant response rating ([4]; Rate 16 g/ha): 0
- Umbrella sedge plant response rating ([4]; Rate 32 g/ha): 0
- Umbrella sedge plant response rating ([4]; Rate 64 g/ha): 50
- Arrowhead plant response rating ([5]; Rate 4 g/ha): 0
- Arrowhead plant response rating ([5]; Rate 8 g/ha): 0
- Arrowhead plant response rating ([5]; Rate 16 g/ha): 0
- Arrowhead plant response rating ([5]; Rate 64 g/ha): 0
- Waterchestnut plant response rating ([6]; Rate 4 g/ha): 0
- Waterchestnut plant response rating ([6]; Rate 8 g/ha): 0
- Waterchestnut plant response rating ([6]; Rate 16 g/ha): 0
- Waterchestnut plant response rating ([6]; Rate 32 g/ha): 10
- Waterchestnut plant response rating ([6]; Rate 64 g/ha): 20
- Japonica 1 plant response rating ([7]; Rate 8 g/ha): 0
- Japonica 2 plant response rating ([7]; Rate 8 g/ha): 0
- Japonica 1 plant response rating ([7]; Rate 16 g/ha): 0
- Japonica 2 plant response rating ([7]; Rate 16 g/ha): 20
- Japonica 1 plant response rating ([7]; Rate 32 g/ha): 0
- Japonica 2 plant response rating ([7]; Rate 32 g/ha): 30
- Japonica 1 plant response rating ([7]; Rate 64 g/ha): 25
- Japonica 2 plant response rating ([7]; Rate 64 g/ha): 30
- Barnyardgrass 2 plant response rating ([8]; Rate 8 g/ha): 25
- Barnyardgrass 3 plant response rating ([8]; Rate 8 g/ha): 35
- Barnyardgrass 2 plant response rating ([8]; Rate 16 g/ha): 45
- Barnyardgrass 3 plant response rating ([8]; Rate 16 g/ha): 45
- Barnyardgrass 2 plant response rating ([8]; Rate 32 g/ha): 90
- Barnyardgrass 3 plant response rating ([8]; Rate 32 g/ha): 55
- Barnyardgrass 2 plant response rating ([8]; Rate 64 g/ha): 100
- Barnyardgrass 3 plant response rating ([8]; Rate 64 g/ha): 70
- Blackgrass (1) plant response rating ([9]; Rate 2 g/ha): 0
- Blackgrass (2) plant response rating ([9]; Rate 2 g/ha): 0
- Blackgrass (1) plant response rating ([9]; Rate 4 g/ha): 0
- Blackgrass (2) plant response rating ([9]; Rate 4 g/ha): 0
- Blackgrass (1) plant response rating ([9]; Rate 8 g/ha): 0
- Blackgrass (2) plant response rating ([9]; Rate 8 g/ha): 0
- Blackgrass (1) plant response rating ([9]; Rate 16 g/ha): 0
- Blackgrass (2) plant response rating ([9]; Rate 16 g/ha): 0
- Blackgrass (1) plant response rating ([9]; Rate 32 g/ha): 0
- Blackgrass (2) plant response rating ([9]; Rate 32 g/ha): 10
- Field violet plant response rating ([10]; Rate 8 g/ha): 60
- Field violet plant response rating ([10]; Rate 16 g/ha): 60
- Field violet plant response rating ([10]; Rate 32 g/ha): 100
- Rape plant response rating ([11]; Rate 2 g/ha): 0
- Rape plant response rating ([11]; Rate 4 g/ha): 0
- Rape plant response rating ([11]; Rate 8 g/ha): 0
- Rape plant response rating ([11]; Rate 16 g/ha): 0
- Rape plant response rating ([11]; Rate 32 g/ha): 20
- Sunflower plant response rating ([12]; Rate 2 g/ha): 0
- Sunflower plant response rating ([12]; Rate 4 g/ha): 0
- Sunflower plant response rating ([12]; Rate 8 g/ha): 0
- Sunflower plant response rating ([12]; Rate 16 g/ha): 0
- Sunflower plant response rating ([12]; Rate 32 g/ha): 0
- Wild buckwheat plant response rating ([13]; Rate 2 g/ha): 100
- Wild buckwheat plant response rating ([13]; Rate 4 g/ha): 100
- Wild buckwheat plant response rating ([13]; Rate 8 g/ha): 100
- Wild buckwheat plant response rating ([13]; Rate 16 g/ha): 100
- Wild buckwheat plant response rating ([13]; Rate 32 g/ha): 100
